The source of these data is DBAASP.

Test in all cases: ≥ marks a high value that may be exact or a test limit, other limits are often not marked, values filed in µg/mL are converted to µM
In experiment [1] the test system is Staphylococcus aureus ATCC BAA-1556.
The subject of experiment [2] is Staphylococcus aureus USA 300.
The test system of experiment [3] is Escherichia coli K-12.
The subject of experiment [4] is Staphylococcus aureus ATCC 2592.
For experiment [5], the system named is Bacillus subtilis.
The test system of experiment [6] is Candida albicans ATCC 2002.
For experiment [7], the system named is Escherichia coli ATCC 25922.
Experiment [8] deals with Pseudomonas aeruginosa PAO1.
Experiment [9] has as its system Bacillus subtilis 168.
Experiment [10] has as its system Bacillus subtilis ATCC 6633.
Experiment [11] relates to Pseudomonas aeruginosa ATCC 9027.

Each structure is given as a SMILES string. Converted amounts (≈) assume the structure as drawn. “And” between values parts separate entries of the source, which are not always exact repeats. Identical values can stand only once.

With `CC(C)C[C@H](NC(=O)[C@H](CC(C)C)NC(=O)[C@H](CC(C)C)NC(=O)[C@H](CC(C)C)NC(=O)[C@H](CCCCN)NC(=O)[C@H](CC(C)C)NC(=O)[C@H](CCCCN)NC(=O)[C@H](CC(C)C)NC(=O)[C@@H](N)CC(C)C)C(N)=O` [LLKLKLLLL], the MIC in experiment [1] is no less than 100 µM.
Regarding `CC[C@H](C)[C@H](NC(=O)[C@H](CC(C)C)NC(=O)[C@H](C)NC(=O)[C@@H]1CCCN1C(=O)[C@H](CCCN=C(N)N)NC(=O)[C@@H](N)Cc1ccccc1)C(=O)N[C@H](C(=O)N[C@@H](CCCN=C(N)N)C(=O)N[C@H](C(=O)N[C@@H](CCCCN)C(=O)NCC(=O)N[C@H](C(=O)N[C@@H](CCCN=C(N)N)C(=O)N[C@@H](CC(C)C)C(=O)O)[C@@H](C)O)[C@@H](C)O)C(C)C` [FRPALIVRTKGTRL], the MIC in [2] and in [3] was 30 µM (≈ 48.8 µg/mL) throughout.
In the case of `CC[C@H](C)[C@H](NC(=O)[C@H](CCC(N)=O)NC(=O)[C@H](CCCCN)NC(=O)CNC(=O)[C@H](CC(C)C)NC(=O)[C@H](CCC(N)=O)NC(=O)CNC(=O)[C@H](CC(C)C)NC(=O)[C@H](CCCCN)NC(=O)[C@H](C)NC(=O)[C@H](CCC(=O)O)NC(=O)[C@H](CCCCN)NC(=O)[C@@H](NC(=O)CNC(=O)[C@@H](NC(=O)[C@@H](NC(=O)[C@@H](NC(=O)[C@@H](N)CO)[C@@H](C)CC)[C@@H](C)CC)[C@@H](C)O)[C@@H](C)O)C(=O)N[C@@H](C)C(=O)N[C@H]1CSSC[C@@H](C(=O)O)NC(=O)[C@H]([C@@H](C)O)NC(=O)[C@H](CC(N)=O)NC(=O)CNC(=O)[C@H](CC(C)C)NC(=O)[C@H](CCCN=C(N)N)NC1=O` [SIITGTKEAKLGQLGKQIACRLGNTC], the MIC in [4] is 5.55 µM (≈ 15 µg/mL); in [5] it was no less than 44.4 µM; in experiment [6], 11.1 µM (≈ 30 µg/mL); in experiment [7] it was 44.4 µM (≈ 120 µg/mL).
In the case of `CC(C)C[C@H](NC(=O)[C@H](Cc1c[nH]c2ccccc12)NC(=O)[C@H](CCCN=C(N)N)NC(=O)[C@H](CC(C)C)NC(=O)[C@H](Cc1c[nH]c2ccccc12)NC(=O)[C@H](CC(C)C)NC(=O)[C@H](CC(C)C)NC(=O)[C@H](Cc1c[nH]c2ccccc12)NC(=O)[C@@H](N)Cc1c[nH]c2ccccc12)C(N)=O` [WWLLWLRWL], the MIC in [1] is 3.12 µM (≈ 4.28 µg/mL).
Consider `CC[C@H](C)[C@H](NC(=O)[C@H](C)NC(=O)[C@@H]1CCCN1C(=O)[C@@H](NC(=O)[C@@H](NC(=O)[C@H](Cc1cnc[nH]1)NC(=O)[C@H](CO)NC(=O)[C@@H](NC(=O)[C@@H](NC(=O)[C@H](CO)NC(=O)CNC(=O)[C@H](CC(C)C)NC(=O)[C@H](CC(C)C)NC(=O)CNC(=O)[C@H](CC(C)C)NC(=O)[C@H](CC(C)C)NC(=O)CN)C(C)C)C(C)C)C(C)C)C(C)C)C(=O)N[C@H](C(=O)NCC(=O)N[C@@H](Cc1cnc[nH]1)C(=O)N[C@@H](Cc1ccccc1)C(N)=O)C(C)C` [GLLGLLGSVVSHVVPAIVGHF], for which the MIC is 6.2 µM (≈ 12.8 µg/mL) in experiment [2], greater than 100 µM in [8], no less than 100 µM in experiment [3] and 25 µM (≈ 51.8 µg/mL) in experiment [9].
Take `CC[C@H](C)[C@H](NC(=O)[C@H](CCCN=C(N)N)NC(=O)[C@H](CCC(N)=O)NC(=O)[C@@H](NC(=O)[C@@H](NC(=O)[C@H](CCCN=C(N)N)NC(=O)[C@H](CCCCN)NC(=O)[C@H](Cc1ccccc1)NC(=O)CN)[C@@H](C)CC)C(C)C)C(=O)N[C@@H](C)C(=O)N[C@@H](CC(=O)O)C(=O)N[C@@H](Cc1ccccc1)C(=O)N[C@@H](CC(C)C)C(=O)N[C@@H](CCCN=C(N)N)C(=O)N[C@@H](CC(N)=O)C(=O)N[C@@H](CC(C)C)C(=O)N[C@H](C(N)=O)C(C)C` [GFKRIVQRIADFLRNLV]: the MIC was 7.5 µM (≈ 15.3 µg/mL) in experiment [2] and no less than 60 µM in experiment [3].
As for `CC[C@H](C)[C@H](NC(=O)[C@H](CCCCN)NC(=O)[C@H](CCCN=C(N)N)NC(=O)CNC(=O)[C@H](CC(C)C)NC(=O)[C@H](CO)NC(=O)[C@H](CCCN=C(N)N)NC(=O)[C@H](CC(C)C)NC(=O)CNC(=O)CN)C(=O)N[C@@H](CC(C)C)C(=O)N[C@@H](CCCN=C(N)N)C(=O)N[C@@H](C)C(=O)N[C@@H](Cc1c[nH]c2ccccc12)C(=O)N[C@@H](CCCCN)C(=O)N[C@@H](CCCCN)C(=O)N[C@@H](Cc1ccc(O)cc1)C(=O)NCC(=O)O` [GGLRSLGRKILRAWKKYG], the figures for the MIC in experiment [3] and in [9] were 2 µM (≈ 4.12 µg/mL) and 8 µM (≈ 16.5 µg/mL), respectively.
As to `CC[C@H](C)[C@H](NC(=O)CN)C(=O)NCC(=O)N[C@@H](CCCN=C(N)N)C(=O)N[C@@H](CCCCN)C(=O)N[C@@H](Cc1ccccc1)C(=O)N[C@@H](CC(C)C)C(=O)NCC(=O)NCC(=O)N[C@H](C(=O)N[C@@H](CCCCN)C(=O)N[C@H](C(=O)N[C@H](C(=O)N[C@@H](Cc1ccccc1)C(=O)N[C@@H](CCCN=C(N)N)C(=O)NCC(=O)NCC(=O)N[C@H](C(=O)N[C@@H](CCCCN)C(=O)N[C@@H](CC(=O)O)C(=O)N[C@@H](Cc1ccccc1)C(=O)N[C@@H](C)C(=O)N[C@@H](CO)C(=O)N[C@@H](CCCCN)C(=O)N[C@@H](Cc1cnc[nH]1)C(=O)N[C@@H](CC(C)C)C(=O)N[C@@H](Cc1ccc(O)cc1)C(N)=O)C(C)C)[C@@H](C)O)[C@@H](C)O)C(C)C` [GIGRKFLGGVKTTFRGGVKDFASKHLY], the MIC is no less than 75 µM in experiment [4]; 150 µM and 100 µM in experiment [7].
For `CC[C@H](C)[C@H](NC(=O)[C@H](Cc1c[nH]c2ccccc12)NC(=O)[C@H](CCCN=C(N)N)NC(=O)[C@H](CCCN=C(N)N)NC(=O)[C@H](Cc1c[nH]c2ccccc12)NC(=O)[C@@H](N)CCCCN)C(=O)N[C@@H](CCCN=C(N)N)C(=O)N[C@@H](CC(C)C)C(=O)N[C@@H](CC(C)C)C(N)=O` [KWRRWIRLL], in experiment [1], the MIC was 25 µM (≈ 33.1 µg/mL).
In experiment [1], `CC(C)C[C@H](NC(=O)[C@H](Cc1c[nH]c2ccccc12)NC(=O)[C@H](Cc1c[nH]c2ccccc12)NC(=O)[C@H](CC(C)C)NC(=O)[C@H](CCCN=C(N)N)NC(=O)[C@H](Cc1c[nH]c2ccccc12)NC(=O)[C@@H](N)CC(C)C)C(=O)N[C@@H](Cc1c[nH]c2ccccc12)C(=O)N[C@@H](Cc1c[nH]c2ccccc12)C(N)=O` [LWRLWWLWW] had an MIC of 3.12 µM (≈ 4.51 µg/mL).
The same measure, in the same setting: under `CC(C)C[C@H](NC(=O)[C@H](CC(C)C)NC(=O)[C@H](CCCCN)NC(=O)[C@H](CC(C)C)NC(=O)[C@H](CC(C)C)NC(=O)[C@H](CC(C)C)NC(=O)[C@H](CC(C)C)NC(=O)[C@H](CCCCN)NC(=O)[C@@H](N)CC(C)C)C(N)=O` [LKLLLLKLL] stands no less than 100 µM.
Regarding `CC[C@H](C)[C@H](NC(=O)[C@@H](NC(=O)[C@@H](N)Cc1ccccc1)[C@@H](C)CC)C(=O)N[C@H](C(=O)NCC(=O)N[C@@H](CC(C)C)C(=O)N[C@H](C(=O)N[C@@H](CCCN=C(N)N)C(=O)NCC(=O)N[C@@H](CC(C)C)C(=O)N[C@H](C(=O)N[C@@H](CCCCN)C(=O)N[C@@H](CC(C)C)C(=O)N[C@@H](Cc1ccccc1)C(N)=O)[C@@H](C)O)C(C)C)[C@@H](C)O` [FIITGLVRGLTKLF], the MIC in [4] turned out to be 7.92 µM (≈ 12.5 µg/mL); in experiment [10], 15.8 µM (≈ 25 µg/mL).
`CC[C@H](C)[C@H](NC(=O)CNC(=O)[C@@H]1CCCN1C(=O)CNC(=O)[C@H](CC(C)C)NC(=O)[C@H](CC(N)=O)NC(=O)[C@H](C)NC(=O)[C@H](Cc1ccccc1)NC(=O)[C@H](CC(N)=O)NC(=O)[C@H](C)NC(=O)[C@H](CCCN=C(N)N)NC(=O)[C@H](Cc1ccccc1)NC(=O)[C@H](C)NC(=O)[C@@H](NC(=O)[C@H](CCCN=C(N)N)NC(=O)[C@H](Cc1c[nH]c2ccccc12)NC(=O)[C@H](Cc1ccc(O)cc1)NC(=O)[C@H](CC(=O)O)NC(=O)[C@H](C)NC(=O)[C@H](CC(C)C)NC(=O)CN)[C@@H](C)O)C(=O)N[C@@H](CCCN=C(N)N)C(=O)N[C@H]1CSSC[C@@H](C(=O)O)NC(=O)[C@H](CCCN=C(N)N)NC(=O)[C@H](C)NC(=O)[C@H](CO)NC(=O)[C@H](CCCCN)NC1=O` [GLADYWRTAFRANFANLGPGIRCKSARC]: the MIC in experiment [4] is 1 µM (≈ 3.11 µg/mL); in experiment [6], no less than 32 µM; in experiment [7] it was 2 µM (≈ 6.23 µg/mL); in [11], 6 µM (≈ 18.7 µg/mL).
The compound `CC(C)C[C@H](NC(=O)[C@H](Cc1c[nH]c2ccccc12)NC(=O)[C@H](Cc1c[nH]c2ccccc12)NC(=O)[C@H](CC(C)C)NC(=O)[C@H](Cc1c[nH]c2ccccc12)NC(=O)[C@H](Cc1c[nH]c2ccccc12)NC(=O)[C@H](CCCN=C(N)N)NC(=O)[C@H](Cc1c[nH]c2ccccc12)NC(=O)[C@@H](N)Cc1c[nH]c2ccccc12)C(N)=O` [WWRWWLWWL] returned an MIC in experiment [1] of 3.12 µM (≈ 4.74 µg/mL). In other words, the single-digit micromolar range.
Regarding `CC[C@H](C)[C@H](NC(=O)[C@H](CCC(N)=O)NC(=O)[C@H](CCCCN)NC(=O)[C@H](Cc1c[nH]c2ccccc12)NC(=O)[C@H](CC(C)C)NC(=O)[C@H](CCC(N)=O)NC(=O)[C@@H]1CCCN1C(=O)[C@H](CC(C)C)NC(=O)[C@H](CCCCN)NC(=O)[C@H](C)NC(=O)[C@H](CCC(=O)O)NC(=O)[C@H](CCCCN)NC(=O)[C@@H](NC(=O)[C@H](CCSC)NC(=O)[C@@H](NC(=O)[C@@H](NC(=O)[C@@H](NC(=O)[C@@H](N)CO)[C@@H](C)CC)[C@@H](C)CC)[C@@H](C)O)[C@@H](C)O)C(=O)N[C@@H](C)C(=O)N[C@H]1CSSC[C@@H](C(=O)O)NC(=O)[C@H]([C@@H](C)O)NC(=O)[C@H](CC(N)=O)NC(=O)CNC(=O)[C@H](CC(C)C)NC(=O)[C@H](CCCN=C(N)N)NC1=O` [SIITMTKEAKLPQLWKQIACRLGNTC], the MIC in experiment [4] is 5.09 µM (≈ 15 µg/mL); in experiment [5], 20.4 µM (≈ 60 µg/mL); in experiment [6], 5.09 µM (≈ 15 µg/mL); in experiment [7] it was 10.2 µM (≈ 30 µg/mL).

By MIC is commonly meant the lowest concentration that inhibits growth of the organism. The low end stands for inhibition by little substance, the high end for a need for much substance.
